# Read-outs that look alike come from different tables or passages of the source.
# Key:
# CD69 = experiment: Induction of CD69 in human whole blood; format: cell-based; conditions: 17 h, CD69 surface staining, 100% set to 1 uM resiquimod
# Method: The induction of Type I interferon (IFN) MX-1 genes and the B-cell activation marker CD69 are downstream events that occur upon activation of the TLR7 pathway. The following is a human whole blood assay that measures their induction in response to a TLR7 agonist.
# Heparinized human whole blood was harvested from human subjects and treated with test TLR7 agonist compounds at 1 mM. The blood was diluted with RPMI 1640 media and Echo was used to predot 10 nL per well giving a final concentration of 1 uM (10 nL in 10 uL of blood). After mixing on a shaker for 30 sec, the plates were covered and placed in a 37° C. chamber for o/n=17 hrs. Fixing/lysis buffer was prepared (5×->1× in H2O, warm at 37° C.; Cat #BD 558049) and kept the perm buffer (on ice) for later use.
# For surface markers staining (CD69): prepared surface Abs: 0.045 ul hCD14-FITC (ThermoFisher Cat #MHCD1401)+0.6 ul hCD19-ef450 (ThermoFisher Cat #48-0198-42)+1.5 ul hCD69-PE (cat #BD555531)+0.855 ul FACS buffer. Added 3 ul/well, spin1000 rpm for 1 min and mixed on shaker for 30 sec, put on ice for 30 mins. Stop stimulation after 30 minutes with 70 uL of prewarmed 1× fix/lysis buffer and use Feliex mate to resuspend (15 times, change tips for each plate) and incubate at 37C for 10 minutes.
# Centrifuge at 2000 rpm for 5 minutes aspirate with HCS plate washer, mix on shaker for 30 sec and then wash with 70 uL in dPBS and pelleted 2×s (2000 rpm for 5 min) and 50 ul wash in FACS buffer pelleted 1×s(2000 rpm for 5 min). Mix on shaker for 30 sec. For Intracellular markers staining (MX-1): Add 50 ul of BD Perm buffer III and mix on shaker for 30 sec. Incubate on ice for 30 minutes (in the dark). Wash with 50 uL of FACS buffer 2× (spin @2300 rpm×5 min after perm) followed by mixing on shaker for 30 sec. Resuspended in 20 ul of FACS buffer containing MX1 antibody ( ) (4812)-Alexa 647: Novus Biologicals #NBP2-43704AF647) 20 ul FACS bf+0.8 ul hlgG+0.04 ul MX-1. Spin 1000 rpm for 1 min, mix on shaker for 30se and the samples were incubated at RT in the dark for 45 minutes followed by washing 2×FACS buffer (spin @2300 rpm×5 min after perm). Resuspend 20 ul (35 uL total per well) of FACS buffer and cover with foil and place in 4° C. to read the following day. Plates were read on iQuePlus. The results were loaded into toolset and IC50 curves are generated in curve master. The y-axis 100% is set to 1 uM of resiquimod.
# human TLR7 = molecular target: T1, human TLR7 (Homo sapiens, UniProt Q9NYK1); experiment: Human TLR7 agonist activity reporter assay (HEK-Blue TLR7 cells, SEAP reporter); format: cell-based; conditions: 18 h treatment
# T1 construct: host or cells: HEK-Blue TLR7 cells (engineered human embryonic kidney cells)
# T1 sequence (Q9NYK1 27-1049): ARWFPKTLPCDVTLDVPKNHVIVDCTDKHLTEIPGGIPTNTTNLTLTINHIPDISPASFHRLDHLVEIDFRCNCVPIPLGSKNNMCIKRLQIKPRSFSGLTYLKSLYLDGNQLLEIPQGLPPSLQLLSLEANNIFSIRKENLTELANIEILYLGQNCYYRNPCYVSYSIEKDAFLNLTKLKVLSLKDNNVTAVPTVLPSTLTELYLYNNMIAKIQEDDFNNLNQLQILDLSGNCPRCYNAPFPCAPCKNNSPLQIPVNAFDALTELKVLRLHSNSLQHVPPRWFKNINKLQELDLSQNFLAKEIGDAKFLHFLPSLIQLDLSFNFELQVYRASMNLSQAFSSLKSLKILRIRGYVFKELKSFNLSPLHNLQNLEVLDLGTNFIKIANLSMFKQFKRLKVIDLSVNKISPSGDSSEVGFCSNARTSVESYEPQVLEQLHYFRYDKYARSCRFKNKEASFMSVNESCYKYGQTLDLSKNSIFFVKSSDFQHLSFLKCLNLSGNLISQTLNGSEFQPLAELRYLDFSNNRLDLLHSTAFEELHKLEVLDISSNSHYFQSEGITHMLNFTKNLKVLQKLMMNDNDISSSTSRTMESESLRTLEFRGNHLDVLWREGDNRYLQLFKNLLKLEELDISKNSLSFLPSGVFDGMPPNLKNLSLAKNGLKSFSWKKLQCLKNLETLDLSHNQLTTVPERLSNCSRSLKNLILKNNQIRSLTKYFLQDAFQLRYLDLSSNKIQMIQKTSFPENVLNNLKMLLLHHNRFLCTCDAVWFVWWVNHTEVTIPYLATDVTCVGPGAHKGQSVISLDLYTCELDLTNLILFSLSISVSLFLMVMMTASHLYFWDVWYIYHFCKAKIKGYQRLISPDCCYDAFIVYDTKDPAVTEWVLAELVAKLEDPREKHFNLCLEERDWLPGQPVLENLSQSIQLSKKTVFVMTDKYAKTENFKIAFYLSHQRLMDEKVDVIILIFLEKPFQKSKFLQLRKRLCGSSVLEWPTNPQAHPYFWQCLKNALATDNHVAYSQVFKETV
# Method: This procedure describes a method for assaying human TLR7 (hTLR7) agonist activity of the compounds disclosed in this specification.
# HEK-Blue™ TLR7 cells were added to each well of a 384-well tissue-culture plate (15,000 cells per well) and incubated 16-18 h at 37° C., 5% CO2. Compounds (100 nl) were dispensed into wells containing the HEK-Blue™ TLR cells and the treated cells were incubated at 37° C., 5% CO2. After 18 h treatment ten microliters of freshly-prepared Quanti-Blue™ reagent (Invivogen) was added to each well, incubated for 30 min (37° C., 5% CO2) and SEAP levels measured using an Envision plate reader (OD=620 nm). The half maximal effective concentration values (EC50; compound concentration which induced a response halfway between the assay baseline and maximum) were calculated.
# [1] = average where assay repeated, Table A1, read-out: hWB CD69 EC50
# [2] = average where assay repeated, Table A1, read-out: hTLR7 Agonism EC50
# [3] = Table A2, read-out: hWB CD69 EC50
# [4] = Table A2, read-out: hTLR7 Agonism EC50
SMILES,EC50 (CD69; [1]) [µM],EC50 (human TLR7; [2]) [µM],EC50 (CD69; [3]) [µM],EC50 (human TLR7; [4]) [µM]
"CCC[C@@H](CCO)Nc1nc(N)nc2c(C)nn(Cc3cc(CN4CCN(CCO)CC4)ccc3OC)c12 [Compound 159, (3S)-3-({5-amino-1-[(5-{[4-(2-hydroxyethyl)piperazin-1-yl]methyl}-2-methoxyphenyl)methyl]-3-methyl-1H-pyrazolo[4,3-d]pyrimidin-7-yl}amino)hexan-1-ol]",0.0371,0.0986,–,–
"CCCCNc1nc(N)nc2cnn(Cc3cc(CNCC4(N)CCC4)ccc3OC)c12 [Compound 129, 1-{[5-({[(1-aminocyclo-butyl)methyl]amino}methyl)-2-methoxyphenyl]methyl}-N7-butyl-1H-pyrazolo[4,3-d]pyrimidine-5,7-diamine]",0.0609,0.587,–,–
"COc1ccc(CN2CC(OC)C2)cc1Cn1ncc2nc(N)nc(NCC3CC4(CC4)C3)c21 [Compound 149, 1-({2-methoxy-5-[(3-methoxyazetidin-1-yl)methyl]-phenyl}methyl)-N7-({spiro-[2.3]hexan-5-yl}methyl)-1H-pyrazolo[4,3-d]pyrimidine-5,7-diamine]",0.525,0.271,–,–
"CCCCNc1nc(N)nc2cnn(Cc3cc(COCCC(C)(C)O)ccc3OC)c12 [Compound 144, 4-[(3-{[5-amino-7-(butyl-amino)-1H-pyrazolo[4,3-d]pyrimidin-1-yl]methyl}-4-methoxyphenyl)methoxy]-2-methylbutan-2-ol]",≥ 1,0.562,–,–
"CCCCNc1nc(N)nc2cnn(Cc3cc(CN4CCN(CCO)CC4)ccc3OC)c12 [Compound 127, 2-{4-[(3-{[5-amino-7-(butylamino)-1H-- pyrazolo[4,3-d]pyrimidin-1-yl]methyl}-4-methoxy-phenyl)methyl]piperazin-1-yl}ethan-1-ol]",0.0475,0.107,–,–
"CCCCNc1nc(N)nc2cnn(Cc3cc(CN4CC5COCC5C4)ccc3OC)c12 (stereo not shown) [Compound 123, N7-butyl-1-{[5-({hexa-hydro-1H-furo[3,4-c]pyrrol-5-yl}methyl)-2-methoxyphenyl]methyl}-1H-pyrazolo[4,3-d] pyrimidine-5,7-diamine]",0.0898,0.158,–,–

# Continued, values first:
EC50 (CD69; [1]) [µM],EC50 (human TLR7; [2]) [µM],EC50 (CD69; [3]) [µM],EC50 (human TLR7; [4]) [µM],SMILES
0.0909,0.124,–,–,"CCCCNc1nc(N)nc2cnn(Cc3cc(CN4CC(OC)C4)ccc3OC)c12 [Compound 105, N7-butyl-1-({2-methoxy-5-[(3-methoxyazetidin-1-yl)methyl]phenyl}methyl)-1H-pyrazolo[4,3-d]pyrimidine-5,7-diamine]"
–,–,0.0273,0.0899,"CCC[C@@H](CCO)Nc1nc(N)nc2cnn(Cc3cc(CNC4CCOCC4)c(F)cc3OC)c12 [Compound 165, (3S)-3-({5-amino-1-[(4-fluoro-2-methoxy-5-{[(oxan-4-yl)amino]-methyl}phenyl)methyl]-1H-pyrazolo[4,3-d]pyrimidin-7-yl}amino)hexan-1-ol]"
–,–,0.0339,0.617,"CCC[C@@H](CCO)Nc1nc(N)nc2cnn(Cc3cc(CNC)ncc3OC)c12 [Compound 178, (3S)-3-{[5-amino-1-({5-methoxy-2-[(methylamino)methyl]pyridin-4-yl}methyl)-1H-pyrazolo[4,3-d]pyrimidin-7-yl]amino}hexan-1-ol]"
–,–,0.17,0.77,"CCC[C@@H](CCO)Nc1nc(N)nc2cnn(Cc3cc(CN(C)CCN(C)C)cnc3OC)c12 [Compound 170, (3S)-3-[(5-amino-1-{[5-({[2-(dimethyl-amino)ethyl](methyl)amino}-methyl)-2-methoxypyridin-3-yl]methyl}-1H-pyrazolo[4,3-d]pyrimidin-7-yl)amino]hexan-1-ol]"
0.133,0.34,–,–,"CCC[C@@H](CCO)Nc1nc(N)nc2c(C)nn(Cc3cc(CN4CCNCC4)ccc3OC)c12 [Compound 161, (3S)-3-{[5-amino-1-({2-methoxy-5-[(piperazin-1-yl)methyl]phenyl}methyl)-3-methyl-1H-pyrazolo[4,3-d]pyrimidin-7-yl]amino}hexan-1-ol]"

# From patent publication US20230118688A1, “1H-PYRAZOLO[4,3-d]PYRIMIDINE COMPOUNDS AS TOLL-LIKE RECEPTOR 7 (TLR7) AGONISTS” (BRISTOL-MYERS SQUIBB COMPANY, priority 2020, published 2023)
